According to patent US11396517B1, “Exo-aza spiro inhibitors of menin-MLL interaction” (Janssen Pharmaceutica NV, priority 2017, dated 2022):
Where two headings read alike, the source gives them in different places.

Target: T1, menin (Homo sapiens, UniProt O00255, T541A)
T1 construct: Menin (a.a. 1-610-6×his tag)
T1 sequence (O00255 with tags, fused parts or gaps T541A): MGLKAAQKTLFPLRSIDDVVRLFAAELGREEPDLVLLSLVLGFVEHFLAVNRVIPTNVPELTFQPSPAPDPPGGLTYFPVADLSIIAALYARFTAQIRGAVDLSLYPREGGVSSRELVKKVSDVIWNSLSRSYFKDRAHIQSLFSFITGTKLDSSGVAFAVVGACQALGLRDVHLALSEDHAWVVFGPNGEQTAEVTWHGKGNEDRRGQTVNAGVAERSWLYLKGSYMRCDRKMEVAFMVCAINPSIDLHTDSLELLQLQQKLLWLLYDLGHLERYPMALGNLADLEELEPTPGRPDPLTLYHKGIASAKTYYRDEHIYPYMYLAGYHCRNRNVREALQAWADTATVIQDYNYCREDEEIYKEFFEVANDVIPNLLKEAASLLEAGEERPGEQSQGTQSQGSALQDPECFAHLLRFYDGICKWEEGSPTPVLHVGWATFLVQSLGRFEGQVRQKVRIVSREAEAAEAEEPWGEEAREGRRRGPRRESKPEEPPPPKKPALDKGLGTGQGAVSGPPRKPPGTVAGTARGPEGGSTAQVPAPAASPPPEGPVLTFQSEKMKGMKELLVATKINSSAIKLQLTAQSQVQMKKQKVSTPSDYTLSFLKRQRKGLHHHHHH
Experiment: Menin/MLL homogenous time-resolved fluorescence (HTRF) assay
Type: binding
Method: 2) Menin/MLL Homogenous Time-Resolved Fluorescence (HTRF) Assay
To an untreated, white 384-well microtiter plate was added 40 nL 200× test compound in DMSO and 4 μL 2× terbium chelate-labeled menin (vide infra for preparation) in assay buffer (40 mM Tris HCl, pH 7.5, 50 mM NaCl, 1 mM DTT and 0.05% Pluronic F-127). After incubation of test compound and terbium chelate-labeled menin for 5 min at ambient temperature, 4 μL 2× FITC-MBM1 peptide (FITC-β-alanine-[…]-NH2 (SEQ ID NO: 23)) in assay buffer was added, the microtiter plate centrifuged at 1000 rpm for 1 min and the assay mixtures incubated for 15 min at ambient temperature. The relative amount of menin.FITC-MBM1 complex present in an assay mixture is determined by measuring the homogenous time-resolved fluorescence (HTRF) of the terbium/FITC donor/acceptor fluorphore pair using a BMG Pherastar plate reader (ex. 337 nm/terbium em. 490 nm/FITC em. 520 nm) at ambient temperature. The degree of fluorescence resonance energy transfer (the HTRF value) is expressed as the ratio of the fluorescence emission intensities of the FITC and terbium fluorophores (Fern 520 nm/Fem 490 nm). The final concentrations of reagents in the binding assay are […] terbium chelate-labeled menin (location 2), 75 nM FITC-MBM1 peptide and 0.5% DMSO in assay buffer. Dose-response titrations of test compounds are conducted using an 11 point, three-fold serial dilution scheme, starting typically at 25 μM (location 1) or starting typically at 10 μM (location 2).
Compound potencies were determined by first calculating % inhibition at each compound concentration according to equation 1: % inhibition=((HC−LC)−(HTRF^compound−LC))/(HC−LC))*100 (Eqn 1)
Where LC and HC are the HTRF values of the assay in the presence or absence of a saturating concentration of a compound that competes with FITC-MBM1 for binding to menin, and HTRF^compound is the measured HTRF value in the presence of the test compound. FTC and LC HTRF values represent an average of at least 16 replicates per plate.
Where Bottom and Top are the lower and upper asymptotes of the dose-response curve, respectively, IC50 is the concentration of compound that yields 50% inhibition of signal and h is the Hill coefficient.
Preparation of Terbium cryptate labeling of Menin: Menin (a.a. 1-610-6×his tag (“6×his” disclosed as SEQ ID NO: 3)) was labeled with terbium cryptate as follows. 2 mg of Menin was buffer exchanged into 1× phosphate buffered saline. 16 uM Menin was incubated with 4-fold molar excess NHS-terbium cryptate (Cisbio Bioassays, Bedford, Mass.) for 2 hours at room temperature. The labeled protein was purified away from free label by running the reaction over a Superdex 200 Increase 10/300 GL column at 0.75 ml/min. Peak fractions were collected, aliquoted and frozen at −80° C.

[1] = location 1, read-out: (2) location 1 Menin HTRF assay (IC50 (nM))
[2] = location 2, read-out: (2) location 2 Menin HTRF assay (IC50 (nM))

Structure (SMILES) | IC50 [1] [nM] | IC50 [2] [nM]
CNc1nc(N2CCC3(CC(Nc4ccccc4)C3)C2)c2cc(CC(F)(F)F)sc2n1 (single isomer, unassigned) [Compound 268] |  | 943
Fc1cccc(NC2CC3(CCN(c4ncnc5sc(CC(F)(F)F)cc45)C3)C2)c1 (mixture of isomers) [Compound 157] |  | 118
CN1CCC(c2cc(NC3CC4(CCN(c5ncnc6sc(CC(F)(F)F)cc56)C4)C3)ccc2C(=O)N2CCOCC2)CC1 (single isomer, unassigned) [Compound 233] |  | 108
COC[C@@H]1CN(C(=O)c2ccc(NC3CC4(CCN(c5ncnc6sc(CC(F)(F)F)cc56)C4)C3)cc2)CCO1 (single isomer, unassigned) [Compound 409] |  | 1100
O=C(c1ccc(NC2CC3(CCN(c4ncnc5sc(CC(F)(F)F)cc45)C3)C2)cc1)N1CCNCC1 (single isomer, unassigned) [Compound 188] |  | 200
Cn1c(=O)[nH]c2cc(NC3CC4(CCN(c5ncnc6sc(CC(F)(F)F)cc56)C4)C3)ccc21 (single isomer, unassigned) [Compound 91] |  | 166
O=c1cc(NC2CC3(CCN(c4ncnc5sc(CC(F)(F)F)cc45)C3)C2)cc[nH]1 (mixture of isomers) [Compound 424] |  | 576
CS(=O)(=O)N1CCN(C(=O)c2ccc(NC3CC4(CCN(c5ncnc6sc(CC(F)(F)F)cc56)C4)C3)cc2)CC1 (single isomer, unassigned) [Compound 179] |  | 2900
CNc1nc(N2CCC3(CC(NCc4ccccc4)C3)C2)c2cc(CC(F)(F)F)sc2n1 (single isomer, unassigned) [Compound 62] |  | 115
Nc1nc(N2CCC3(CC(Nc4ccc5[nH]c(=O)[nH]c5c4)C3)C2)c2cc(CC(F)(F)F)sc2n1 (single isomer, unassigned) [Compound 383] |  | 70.8

More lines, now with the values ahead:

IC50 [1] [nM] | IC50 [2] [nM] | Structure (SMILES)
843 | 948 | N#CCc1ccc(C(=O)NC2CC3(CCN(c4ncnc5sc(CC(F)(F)F)cc45)C3)C2)cc1 (mixture of isomers) [Compound 10]
3630 | 3560 | CC(C)(C#N)c1cccc(C(=O)NC2CCC3(C2)CN(c2ncnc4sc(CC(F)(F)F)cc24)C3)c1 (stereo not shown) [Compound 19]
 | 313 | FC(F)(F)Cc1cc2c(N3CC4(CC[C@@H](NC5(c6ccccc6)CC5)C4)C3)ncnc2s1 (stereo in doubt) [Compound 112]
 | 433 | CNC(=O)c1ccc(NC2CC3(CCN(c4ncnc5sc(CC(F)(F)F)cc45)C3)C2)nc1 (single isomer, unassigned) [Compound 71]
 | 241 | FC(F)(F)Cc1cc2c(N3CCC4(CCC(Nc5ccccc5)C4)C3)ncnc2s1 (single isomer, unassigned) [Compound 31]
2020 | 2790 | N#CCc1ccc(C(=O)NC2CCC3(C2)CN(c2ncnc4sc(CC(F)(F)F)cc24)C3)cc1 (stereo not shown) [Compound 20]
 | 60.4 | CN(C)CCNC(=O)c1ccc(NC2CC3(CCN(c4ncnc5sc(CC(F)(F)F)cc45)C3)C2)cc1 (single isomer, unassigned) [Compound 74]
188 | 39.9 | FC(F)(F)Cc1cc2c(N3CCC4(CCC(NCc5ccccc5)C4)C3)ncnc2s1 (single isomer, unassigned) [Compound 4]
3810 | 1220 | CC(C)(C#N)c1cccc(C(=O)NC2CC3(CCN(c4ncnc5sc(CC(F)(F)F)cc45)C3)C2)c1 (stereo not shown) [Compound 9]
 | 180 | N#Cc1cccc(NC2CCC3(CCN(c4ncnc5sc(CC(F)(F)F)cc45)C3)C2)c1 (stereo not shown) [Compound 132]
 | 163 | CNc1nc(N2CCC3(CC(Nc4ccc(CC#N)cc4)C3)C2)c2cc(CC(F)(F)F)sc2n1 (single isomer, unassigned) [Compound 391]
 | 949 | FC(F)(F)Cc1cc2c(N3CC4(CCC(Nc5cn[nH]c5)C4)C3)ncnc2s1 (racemic) [Compound 277]
 | > 10000 | N#CCc1cccc(C(=O)NC2CCC3(CCN(c4ncnc5sc(CC(F)(F)F)cc45)C3)C2)c1 (stereo not shown) [Compound 127]
